According to PMC10762068, “Selective blockade of Cav1.2 (α1C) versus Cav1.3 (α1D) L-type calcium channels by the black mamba toxin calciseptine” (Nature Communications, 2024):
Like-named read-outs stand apart in the source and are kept apart here. Positions of bridges follow the written chain, without caps; N, C: chain ends. No end group written: not given here.

Assays:
[1] = test system: Cav1.2 (ICav1.2) in isolated adult mouse ventricular myocytes; format: cell-based
[2] = test system: total ICaL (ICav1.2+ICav1.3) in SAN myocytes from wild-type mice; experiment: ICaL, patch clamp, SAN myocytes from wild-type mice; format: cell-based, mouse; conditions: for L-type Ca2+ current density: Cas 1 µM alone or + Nife 3 µM, n=8
Experimental: (§1) Hearts from Wild-Type and Cav1.3^−/− mice were removed under general anesthesia consisting of 0.01 mg/g xylazine (2% Rompun; Bayer AG) and 0.1 mg/g ketamine (Imalgène;Merial) and immersed in a pre-warmed (36 °C) Tyrode solution containing (mM): 140 NaCl, 5.4 KCl, 1 MgCl2, 1.8 CaCl2, 5.5 D-glucose, and 5 Hepes (adjusted to pH 7.4 with NaOH). […] SAN tissue was excised and transferred into a low-Ca^2+ solution containing (mM): 140 NaCl, 5.4 KCl, 0.5 MgCl2, 0.2 CaCl2, 1.2 KH2PO4, 50 taurine, 5.5 D-glucose, 1 mg/mL BSA, and 5 Hepes–NaOH (adjusted to pH 6.9 with NaOH) for 5 min. Then, enzymatic digestion was carried out for 20-25 min at 36 °C in the low-Ca^2+ solution containing LiberaseTH Research Grade (0.15 mg/mL; Roche, Mannheim, Germany) and elastase (0.5 mg/mL; Worthington, Lakewood, NJ, USA). Digestion was stopped by washing the SAN in a “Kraftbrühe” (KB) medium containing (mM) 100 K-glutamate, 10 K-aspartate, 25 KCl, 10 KH2PO4, 2 MgSO4, 20 taurine, 5 creatine, 0.5 EGTA, 20 D-glucose, 5 Hepes, and 1 mg/mL BSA (adjusted to pH 7.2 with KOH). Single SAN cells were then dissociated from the SAN tissue by manual agitation using a flame-forged Pasteur’s pipette. To recover the automaticity of the SAN cells, Ca^2+ was gradually reintroduced in the cell’s storage solution to a final concentration of 1.8 mM. SAN cells were then left to rest for 1 h before recordings.
(§2) For patch-clamp recordings of SAN myocytes, cells were harvested in custom-made chambers with glass bottoms for cell attachment. Cells were then super-fused with Tyrode’s solution warmed at 36 °C before recording. Action potentials and ionic currents were recorded using an Axon multi-clamp patch-clamp 700B amplifier. Voltage-gated L-type Ca^2+ currents (ICaL) were recorded using standard whole cell patch-clamp configuration. For recording ICaL, we used an extracellular recording solution contained (mM): 135 tetraethylammonium chloride (TEA-Cl), 10 4-aminopyridine (4-AP), 1 MgCl2, 0.03 tetrodotoxin (TTX), 1 g/L Glucose, 2 CaCl2, 10 Hepes, (adjusted to pH = 7.2 with TEAOH). […] Pacemaker activity was recorded by the perforated patch-clamp technique using escin (40 µg/ml). For recording cell automaticity glass pipettes were filled with the intracellular solution contained (mM): 80 K-Aspartate, 50 KCl, 1 MgCl2, 5 HEPES, 2 CaCl2, 5 EGTA, 3 ATP-Na+ salt; pH was adjusted to 7.2 with KOH. Escin was dissolved in sterile H2O and added to the intracellular solution right before each experiment.
(§3) In all experiments of cellular electrophysiology, we employed synthetized analog of Cas, commercially available at Latoxan (ID: L8109). The native peptide was purified from the venom of Dendroaspis polylepis purchased from Latoxan, as previoulsly described. The pure peptide was obtained after gel filtration, cation exchange and C18 reversed phase chromatography. Its measured molecular mass (7036.26 Da average) was in accordance with the mass calculated from sequence data (7036.22 Da).

[3] = test system: ICav1.2 in SAN myocytes from Cav1.3^−/− mice; experiment: ICaL, patch clamp, SAN myocytes from Cav1.3-/- mice; format: cell-based, mouse; conditions: for degree of inhibition of ICav1.2 / percentage of ICaL block: step 0 mV, mean ± SEM; for degree of inhibition of ICav1.2: n=6/N=2; for percentage of ICaL block: n=7/N=2; for L-type Ca2+ current density: Cas 1 µM alone or + Nife 3 µM, n=8
Experimental: as §1, §2, §3

[4] = test system: SAN myocytes from Wild-Type mice; experiment: Spontaneous action potentials, perforated patch-clamp, SAN pacemaker myocytes; format: cell-based, mouse; conditions: for action potential duration APD30: 30% repolarization; for action potential duration APD30 / action potential duration APD50 / action potential duration APD70 / action potential duration APD90 / slope of linear part of diastolic depolarization (SLDD) / slope of exponential part of diastolic depolarization (SEDD) / action potential amplitude (APA) / action potential rate: mean ± SEM; for action potential duration APD50: 50% repolarization; for action potential duration APD70: 70% repolarization; for action potential duration APD90: 90% repolarization
Experimental: as §1, §2
We used an extracellular recording solution (Tyrode’s based) contained (mM): 140 NaCl, 5.4 KCl, 1 MgCl2, 1.8 CaCl2, 5 HEPES, 5.5 D-Glucose; pH was set to 7.4 with NaOH. AP parameters have been calculated as reported in Baudot et al.[10]. Data were analyzed using pCLAMP9 (Molecular Devices) and GraphPad Prism (GraphPad) software.
as §3

[5] = Cas 300 nM alone (n=9/N=4) or + Nife 3 µM (n=8/N=4)
[6] = Cas 1 µM alone (n=12/N=3) or + Nife 3 µM (n=9/N=3)

RICYIHKASLPRATKTCVENTCYKMFIRTQREYISERGCGCPTAMWPYQTECCKGDRCNK (disulfide 3-22, 17-39, 41-52, 53-58 (inferred)) [Cas, calciseptine]
L-type Ca2+ current density ([1]; Cas 100 nM alone or + Nife 3 µM, +10 mV, Ctrl -9.81±1.32, n=9): -6.14±1.02 pA/pF
L-type Ca2+ current density ([1]; Cas 100 nM alone or + Nife 3 µM, +20 mV, Ctrl -8.04±1.33, n=9): -5.17±0.93 pA/pF
L-type Ca2+ current density ([1]; Cas 100 nM alone or + Nife 3 µM, +40 mV, Ctrl -3.68±0.68, n=9): -2.24±0.46 pA/pF
L-type Ca2+ current density ([1]; Cas 100 nM alone or + Nife 3 µM, -10 mV, Ctrl -5.27±0.86, n=9): -3.45±0.54 pA/pF
L-type Ca2+ current density ([1]; Cas 100 nM alone or + Nife 3 µM, -20 mV, Ctrl -1.26±0.27, n=9): -1.21±0.20 pA/pF
reduction of ICav1.2 ([1]; Cas 100 nM, 300 nM, 1 µM, voltages −25 mV to +40 mV, holding −55 mV): dose-dependently reduced
L-type Ca2+ current density ([1]; Cas 300 nM alone or + Nife 3 µM, 0 mV, Ctrl -10.51±1.51, n=7): -3.07±0.59 pA/pF
L-type Ca2+ current density ([1]; Cas 300 nM alone or + Nife 3 µM, +10 mV, Ctrl -10.15±1.38, n=7): -3.66±0.55 pA/pF
L-type Ca2+ current density ([1]; Cas 300 nM alone or + Nife 3 µM, +20 mV, Ctrl -8.09±1.11, n=7): -3.32±0.45 pA/pF
L-type Ca2+ current density ([1]; Cas 300 nM alone or + Nife 3 µM, +40 mV, Ctrl -3.36±0.49, n=7): -1.58±0.23 pA/pF
L-type Ca2+ current density ([1]; Cas 300 nM alone or + Nife 3 µM, -10 mV, Ctrl -6.58±1.29, n=7): -1.63±0.37 pA/pF
L-type Ca2+ current density ([1]; Cas 300 nM alone or + Nife 3 µM, -20 mV, Ctrl -2.02±0.86, n=7): -0.52±0.07 pA/pF
L-type Ca2+ current density ([1]; Cas 1 µM alone or + Nife 3 µM, 0 mV, Ctrl -9.85±1.04, n=6): -2.28±0.33 pA/pF
L-type Ca2+ current density ([1]; Cas 1 µM alone or + Nife 3 µM, +10 mV, Ctrl -8.83±1,09, n=6): -3.38±0.15 pA/pF
L-type Ca2+ current density ([1]; Cas 1 µM alone or + Nife 3 µM, +20 mV, Ctrl -6.41±0.90, n=6): -3.38±0.12 pA/pF
L-type Ca2+ current density ([1]; Cas 1 µM alone or + Nife 3 µM, +40 mV, Ctrl -2.75±0.60, n=6): -1.35±0.11 pA/pF
L-type Ca2+ current density ([1]; Cas 1 µM alone or + Nife 3 µM, -10 mV, Ctrl -7.71±0.98, n=6): -0.87±0.23 pA/pF
L-type Ca2+ current density ([1]; Cas 1 µM alone or + Nife 3 µM, -20 mV, Ctrl -3.53±0.98, n=6): -0.34±0.07 pA/pF
L-type Ca2+ current density ([2]; 0 mV, Ctrl -8.45± 1.02): -3.87± 0.71 pA/pF
L-type Ca2+ current density ([2]; +20 mV, Ctrl -5.09± 0.81): -1.53± 0.56 pA/pF
L-type Ca2+ current density ([2]; -10 mV, Ctrl -8.20± 1.10): -4.24± 0.77 pA/pF
L-type Ca2+ current density ([2]; -20 mV, Ctrl -5.61± 0.91): -3.37± 0.54 pA/pF
L-type Ca2+ current density ([2]; -25 mV, Ctrl -3.96± 0.71): -2.46± 0.48 pA/pF
L-type Ca2+ current density ([2]; -30 mV, Ctrl -2.44± 0.47): -1.49± 0.38 pA/pF
L-type Ca2+ current density ([2]; -35 mV, Ctrl -1.18± 0.29): -0.90± 0.24 pA/pF
reduction of total ICaL ([2]; Wild-Type SAN myocytes, voltage clamp): around 45%
degree of inhibition of ICav1.2 ([3]; Cas 300 nM, 0.2 Hz, holding −60 mV): 62 ± 6%
degree of inhibition of ICav1.2 ([3]; Cas 300 nM, 1 Hz, holding −60 mV): 63 ± 6%
degree of inhibition of ICav1.2 ([3]; Cas 300 nM, 5 Hz, holding −60 mV): 58 ± 8%
voltage- or use-dependence of ICav1.2 inhibition ([3]; Cas 300 nM, holding −40 / −60 mV, 0.2, 1, 5 Hz): not voltage- or use-dependent
percentage of ICaL block ([3]; Cas 300 nM, holding −40 mV): 68 ± 3%
percentage of ICaL block ([3]; Cas 300 nM, holding −60 mV): 67 ± 4%
L-type Ca2+ current density ([3]; 0 mV, Ctrl -4.14± 0.56): -0.45± 0.14 pA/pF
L-type Ca2+ current density ([3]; +10 mV, Ctrl -4.69± 0.57): -0.17± 0.14 pA/pF
L-type Ca2+ current density ([3]; +20 mV, Ctrl -3.93± 0.56): -0.13± 0.21 pA/pF
L-type Ca2+ current density ([3]; +40 mV, Ctrl -1.15± 0.37): 0.37± 0.29 pA/pF
L-type Ca2+ current density ([3]; -10 mV, Ctrl -2.49± 0.39): -0.17± 0.07 pA/pF
L-type Ca2+ current density ([3]; -20 mV, Ctrl -1.16± 0.20): -0.08± 0.03 pA/pF
L-type Ca2+ current density ([3]; -25 mV, Ctrl -0.97± 0.21): -0.25± 0.13 pA/pF
block of ICaL ([3]; Cas 1 µM, holding −55 mV, n=8/N=2): totally blocked ICaL
residual ICaL after Cas ([3]; Cav1.3^−/− SAN myocytes after Cas perfusion): No residual ICaL was recorded
effect on AP duration ([4]; Cas 300 nM): did not affect AP duration
action potential duration APD30 [4, 5]: 28 ± 2 ms
action potential duration APD50 [4, 5]: 46 ± 4 ms
action potential duration APD70 [4, 5]: 66 ± 6 ms
action potential duration APD90 [4, 5]: 98 ± 8 ms
slope of linear part of diastolic depolarization (SLDD) ([4]; Cas 300 nM alone (n=9/N=4) or + Nife 3 µM (n=8/N=4), Ctrl 0.06 ± 0.01): ^$0.05 ± 0.01^p=0.0128 mV/ms
slope of exponential part of diastolic depolarization (SEDD) ([4]; Cas 300 nM alone (n=9/N=4) or + Nife 3 µM (n=8/N=4), Ctrl 0.51 ± 0.09): ^$0.40 ± 0.04^p=0.0078 mV/ms
action potential amplitude (APA) ([4]; Cas 300 nM alone (n=9/N=4) or + Nife 3 µM (n=8/N=4), Ctrl 83 ± 2): 75 ± 3 mV
action potential rate ([4]; Cas 300 nM alone (n=9/N=4) or + Nife 3 µM (n=8/N=4), Ctrl 200 ± 21): ^$194 ± 19^p=0.0004 bpm
effect on AP amplitude ([4]; Cas 300 nM and 1 µM): reduced AP amplitude
effect on AP firing rate ([4]; Cas 300 nM and 1 µM): did not affect AP firing rate
effect on maximum diastolic potential, threshold potential and upstroke velocity ([4]; Cas 300 nM or 1 µM): did not observe statistically significant differences
effect on slopes of linear and exponential diastolic depolarization ([4]; Cas 300 nM or 1 µM): did not change
effect on AP duration at 30% and 50% of repolarization ([4]; Cas 1 µM): had statistically significant effect
action potential duration APD30 [4, 6]: 25 ± 2 ms
action potential duration APD50 [4, 6]: 43 ± 3 ms
action potential duration APD70 [4, 6]: 61 ± 3 ms
action potential duration APD90 [4, 6]: 87 ± 4 ms
slope of linear part of diastolic depolarization (SLDD) ([4]; Cas 1 µM alone (n=12/N=3) or + Nife 3 µM (n=10/N=3), Ctrl 0.07 ± 0.01): ^$0.06 ± 0.01^p=0.0187 mV/ms
slope of exponential part of diastolic depolarization (SEDD) ([4]; Cas 1 µM alone (n=12/N=3) or + Nife 3 µM (n=10/N=3), Ctrl 0.48 ± 0.06): ^$0.50 ± 0.06^p=0.0002 mV/ms
action potential amplitude (APA) ([4]; Cas 1 µM alone (n=12/N=3) or + Nife 3 µM (n=10/N=3), Ctrl 91 ± 2): 85 ± 3 mV
action potential rate ([4]; Cas 1 µM alone (n=12/N=3) or + Nife 3 µM (n=10/N=3), Ctrl 218 ± 15): ^$213 ± 15^p<0.0001 bpm
